Source: ChEMBL document CHEMBL6177961, “Structure-Based Analysis of Semisynthetic Anti-TB Rufomycin Analogues” (J Nat Prod, 2025)
≈ marks a conversion by molar mass, not a printed value.

Assays:
[1] = Selectivity index, ratio of IC50 for cytotoxicity against African green monkey Vero cells to MIC for antimycobacterial activity against Mycobacterium tuberculosis H37Rv ATCC 27294; type: toxicity, cell-based; settings: read-out: Selectivity Index
[2] = system: Mycobacterium tuberculosis; test: Antimycobacterial activity against Mycobacterium tuberculosis H37Rv ATCC 27294 assessed as reduction in bacterial growth by microplate alamar blue assay; type: functional
[3] = system: Mycobacteroides abscessus; test: Antimycobacterial activity against Mycobacterium abscessus ATCC 19977 assessed as reduction in bacterial growth by microplate Alamar blue assay; type: functional
[4] = Cytotoxicity against African green monkey Vero cells; type: toxicity, cell-based; settings: African green monkey (Chlorocebus sabaeus)
Mycobacterium avium = test: Antimycobacterial activity against Mycobacterium avium assessed as reduction in bacterial growth; type: functional
[5] = Binding affinity to N-terminal Mycobacterium tuberculosis ClpC1 assessed as dissociation constant by SPR analysis
[6] = Binding affinity to full length Mycobacterium tuberculosis ClpC1 assessed as dissociation constant by SPR analysis

| SMILES | selectivity ratio [1] | MIC [2] | MIC [3] | IC50 [4] | MIC (Mycobacterium avium) | Kd [5] | Kd [6] |
| --- | --- | --- | --- | --- | --- | --- | --- |
| C/C=C/C[C@@H]1NC(=O)[C@H](CC(C)C)N2C=C(C)C[C@@H](C2=O)N(C)C(=O)[C@H](C)NC(=O)[C@H](Cc2ccc(OC)c([N+](=O)[O-])c2)NC(=O)[C@H](CC(C)C)N(C)C(=O)[C@H](Cc2cn(C(C)(C)[C@H]3CO3)c3ccccc23)NC1=O | 1300 | 0.073 µM (≈ 0.0758 µg/mL) | 2.3 µM (≈ 2.39 µg/mL) | 98000 nM | > 10 µM |  |  |
| C/C=C/C[C@@H]1NC(=O)[C@H](CC(C)C)N2C=C(C)C[C@@H](C2=O)N(C)C(=O)[C@H](C)NC(=O)[C@H](Cc2ccc(O)c([N+](=O)[O-])c2)NC(=O)[C@H](CC(C)C)N(C)C(=O)[C@H](Cc2cn(C(C)(C)[C@H]3CO3)c3ccccc23)NC1=O | > 33000 | 0.003 µM (≈ 0.00307 µg/mL) | 0.58 µM (≈ 0.594 µg/mL) | > 100000 nM | 4.1 µM (≈ 4.2 µg/mL) | 50 nM | 60 nM |
| C/C=C/C[C@@H]1NC(=O)[C@H](CC(C)C)N2C=C(C)C[C@@H](C2=O)N(C)C(=O)[C@H](C)NC(=O)[C@H](Cc2ccc(O)c(N)c2)NC(=O)[C@H](CC(C)C)N(C)C(=O)[C@H](Cc2cn(C(C)(C)[C@H](O)CCl)c3ccccc23)NC1=O | > 110 | 0.89 µM (≈ 0.917 µg/mL) | 8.3 µM (≈ 8.55 µg/mL) | > 100000 nM | > 10 µM |  |  |
| C/C=C/C[C@@H]1NC(=O)[C@H](CC(C)C)N2C(=O)[C@H](CC(C)[C@H]2OC)N(C)C(=O)[C@H](C)NC(=O)[C@H](Cc2ccc(O)c([N+](=O)[O-])c2)NC(=O)[C@H](CC(C)C)N(C)C(=O)[C@H](Cc2cn(C(C)(C)[C@H](O)COC)c3ccccc23)NC1=O (some centres not stated) | > 13000 | 0.008 µM (≈ 0.00871 µg/mL) | 0.11 µM (≈ 0.12 µg/mL) | > 100000 nM | 0.4 µM (≈ 0.435 µg/mL) | 75 nM | 72 nM |
| C/C=C/C[C@@H]1NC(=O)[C@H](CC(C)C)N2C(=O)[C@H](C[C@@H](C)[C@H]2OCCCC)N(C)C(=O)[C@H](C)NC(=O)[C@H](Cc2ccc(O)c([N+](=O)[O-])c2)NC(=O)[C@H](CC(C)C)N(C)C(=O)[C@H](Cc2cn(C(C)(C)[C@H](O)CCl)c3ccccc23)NC1=O |  | 4.3 µM (≈ 4.88 µg/mL) | > 10 µM | > 100000 nM |  | 210 nM | 170 nM |
| C/C=C/C[C@@H]1NC(=O)[C@H](CC(C)C)N2C(=O)[C@H](CC(C)[C@H]2OC)N(C)C(=O)[C@H](C)NC(=O)[C@H](Cc2ccc(OC)c([N+](=O)[O-])c2)NC(=O)[C@H](CC(C)C)N(C)C(=O)[C@H](Cc2cn(C(C)(C)[C@H]3CO3)c3ccccc23)N(C)C1=O (some centres not stated) | 1400 | 0.065 µM (≈ 0.0705 µg/mL) | 2.1 µM (≈ 2.28 µg/mL) | 90000 nM | 9 µM (≈ 9.76 µg/mL) |  |  |
| C/C=C/C[C@@H]1NC(=O)[C@H](CC(C)C)N2C(=O)[C@H](C[C@@H](C)[C@H]2OCC)N(C)C(=O)[C@H](C)NC(=O)[C@H](Cc2ccc(O)c([N+](=O)[O-])c2)NC(=O)[C@H](CC(C)C)N(C)C(=O)[C@H](Cc2cn(C(C)(C)[C@H](O)CCl)c3ccccc23)NC1=O | > 42 | 0.24 µM (≈ 0.266 µg/mL) | 1.1 µM (≈ 1.22 µg/mL) | > 10000 nM | > 10 µM | 120 nM | 140 nM |
| C/C=C/C[C@@H]1NC(=O)[C@H](CC(C)C)N2C(=O)[C@H](CC(C)[C@H]2OC)N(C)C(=O)[C@H](C)NC(=O)[C@H](Cc2ccc(O)c([N+](=O)[O-])c2)NC(=O)[C@H](CC(C)C)N(C)C(=O)[C@H](Cc2cn(C(C)(C)[C@H]3CO3)c3ccccc23)NC1=O (some centres not stated) | > 53000 | 0.002 µM (≈ 0.00211 µg/mL) | 0.15 µM (≈ 0.158 µg/mL) | > 100000 nM | 1.4 µM (≈ 1.48 µg/mL) |  |  |
| C/C=C/C[C@@H]1NC(=O)[C@H](CC(C)C)N2C=C(C)C[C@@H](C2=O)N(C)C(=O)[C@H](C)NC(=O)[C@H](Cc2ccc(O)c([N+](=O)[O-])c2)NC(=O)[C@H](CC(C)C)N(C)C(=O)[C@H](Cc2cn(C(C)(C)[C@H](O)CBr)c3ccccc23)NC1=O | > 32000 | 0.003 µM (≈ 0.00332 µg/mL) | 0.57 µM (≈ 0.63 µg/mL) | > 100000 nM | 1.1 µM (≈ 1.22 µg/mL) | 260 nM | 350 nM |
| C/C=C/C[C@@H]1NC(=O)[C@H](CC(C)C)N2C(=O)[C@H](C[C@H](C)[C@@H]2OCCCC)N(C)C(=O)[C@H](C)NC(=O)[C@H](Cc2ccc(O)c([N+](=O)[O-])c2)NC(=O)[C@H](CC(C)C)N(C)C(=O)[C@H](Cc2cn(C(C)(C)[C@H](O)CCl)c3ccccc23)NC1=O | > 2100 | 0.048 µM (≈ 0.0545 µg/mL) | 4.2 µM (≈ 4.77 µg/mL) | > 100000 nM |  | 27 nM | 29 nM |
| C/C=C/C[C@@H]1NC(=O)[C@H](CC(C)C)N2C=C(C)C[C@@H](C2=O)N(C)C(=O)[C@H](C)NC(=O)[C@H](Cc2ccc3c(c2)N=C(C)CC(C)(C)O3)NC(=O)[C@H](CC(C)C)N(C)C(=O)[C@H](Cc2cn(C(C)(C)[C@H](O)CCl)c3ccccc23)NC1=O | > 130 | 0.79 µM (≈ 0.878 µg/mL) | 4.5 µM (≈ 5 µg/mL) | > 100000 nM | > 10 µM |  |  |
| C/C=C/C[C@@H]1NC(=O)[C@H](CC(C)C)N2C(=O)[C@H](C[C@@H](C)[C@@H]2OCCCC)N(C)C(=O)[C@H](C)NC(=O)[C@H](Cc2ccc(O)c([N+](=O)[O-])c2)NC(=O)[C@H](CC(C)C)N(C)C(=O)[C@H](Cc2cn(C(C)(C)[C@H](O)CCl)c3ccccc23)NC1=O | 120 | 0.77 µM (≈ 0.874 µg/mL) | 9.4 µM (≈ 10.7 µg/mL) | 95000 nM | > 10 µM | 600 nM | 720 nM |
| C/C=C/C[C@@H]1NC(=O)[C@H](CC(C)C)N2C(=O)[C@H](CC(C)[C@H]2OC(C)=O)N(C)C(=O)[C@H](C)NC(=O)[C@H](Cc2ccc(OC(C)=O)c([N+](=O)[O-])c2)NC(=O)[C@H](CC(C)C)N(C)C(=O)[C@H](Cc2cn(C(C)(C)[C@H]3CO3)c3ccccc23)NC1=O (some centres not stated) | > 23000 | 0.004 µM (≈ 0.00451 µg/mL) | 0.27 µM (≈ 0.304 µg/mL) | > 100000 nM | 0.96 µM (≈ 1.08 µg/mL) |  | 16 nM |
| C/C=C/C[C@@H]1NC(=O)[C@H](CC(C)C)N2C(=O)[C@H](CC(C)[C@H]2OCCC)N(C)C(=O)[C@H](C)NC(=O)[C@H](Cc2ccc(O)c([N+](=O)[O-])c2)NC(=O)[C@H](CC(C)C)N(C)C(=O)[C@H](Cc2cn(C(C)(C)[C@H](O)CCl)c3ccccc23)NC1=O (some centres not stated) | > 13 | 0.75 µM (≈ 0.841 µg/mL) | 2.1 µM (≈ 2.35 µg/mL) | > 10000 nM | > 10 µM |  |  |
| C/C=C/C[C@@H]1NC(=O)[C@H](CC(C)C)N2C(=O)[C@H](CC(C)[C@H]2OC)N(C)C(=O)[C@H](C)NC(=O)[C@H](Cc2ccc(OC)c([N+](=O)[O-])c2)NC(=O)[C@H](CC(C)C)N(C)C(=O)[C@H](Cc2cn(C(C)(C)[C@H]3CO3)c3ccccc23)NC1=O (some centres not stated) | 17000 | 0.006 µM (≈ 0.00642 µg/mL) | 0.53 µM (≈ 0.567 µg/mL) | 100000 nM | 1.2 µM (≈ 1.28 µg/mL) |  | 64 nM |
| C/C=C/C[C@@H]1NC(=O)[C@H](CC(C)C)N2C=C(C)C[C@@H](C2=O)N(C)C(=O)[C@H](C)NC(=O)[C@H](Cc2ccc(OC(C)=O)c([N+](=O)[O-])c2)NC(=O)[C@H](CC(C)C)N(C)C(=O)[C@H](Cc2cn(C(C)(C)[C@H](O)CCl)c3ccccc23)NC1=O | > 4500 | 0.022 µM (≈ 0.0243 µg/mL) | 1.1 µM (≈ 1.21 µg/mL) | > 100000 nM | 5.8 µM (≈ 6.4 µg/mL) |  |  |
| C/C=C/C[C@@H]1NC(=O)[C@H](CC(C)C)N2C=C(C)C[C@@H](C2=O)N(C)C(=O)[C@H](C)NC(=O)[C@H](Cc2ccc(OC(=O)c3ccccc3)c([N+](=O)[O-])c2)NC(=O)[C@H](CC(C)C)N(C)C(=O)[C@H](Cc2cn(C(C)(C)[C@H](O)CCl)c3ccccc23)NC1=O | > 1900 | 0.052 µM (≈ 0.0606 µg/mL) | 2 µM (≈ 2.33 µg/mL) | > 100000 nM | > 10 µM |  |  |
| C/C=C/C[C@@H]1NC(=O)[C@H](CC(C)C)N2C(=O)[C@H](C[C@H](C)[C@H]2OCC)N(C)C(=O)[C@H](C)NC(=O)[C@H](Cc2ccc(O)c([N+](=O)[O-])c2)NC(=O)[C@H](CC(C)C)N(C)C(=O)[C@H](Cc2cn(C(C)(C)[C@H](O)CCl)c3ccccc23)NC1=O | > 19000 | 0.005 µM (≈ 0.00553 µg/mL) | 0.49 µM (≈ 0.542 µg/mL) | > 100000 nM | 2.2 µM (≈ 2.43 µg/mL) | 11 nM | 87 nM |
| C/C=C/C[C@@H]1NC(=O)[C@H](CC(C)C)N2C=C(C)C[C@@H](C2=O)N(C)C(=O)[C@H](C)NC(=O)[C@H](Cc2ccc(O)c([N+](=O)[O-])c2)NC(=O)[C@H](CC(C)C)N(C)C(=O)[C@H](Cc2cn(C(C)(C)[C@H](O)CCl)c3ccccc23)NC1=O |  | 0.019 µM (≈ 0.0202 µg/mL) | 1.1 µM (≈ 1.17 µg/mL) | > 100000 nM | 4.8 µM (≈ 5.09 µg/mL) |  |  |
| C/C=C/C[C@@H]1NC(=O)[C@H](CC(C)C)N2C(=O)[C@H](CC(C)[C@H]2OC)N(C)C(=O)[C@H](C)NC(=O)[C@H](Cc2ccc(O)c([N+](=O)[O-])c2)NC(=O)[C@H](CC(C)C)N(C)C(=O)[C@H](Cc2cn(C(C)(C)[C@H](O)CCl)c3ccccc23)NC1=O (some centres not stated) | > 20000 | 0.005 µM (≈ 0.00546 µg/mL) | 0.25 µM (≈ 0.273 µg/mL) | > 100000 nM | 0.4 µM (≈ 0.437 µg/mL) | 66 nM | 96 nM |
| C/C=C/C[C@@H]1NC(=O)[C@H](CC(C)C)N2C(=O)[C@H](CC(C)[C@H]2O)N(C)C(=O)[C@H](C)NC(=O)[C@H](Cc2ccc(O)c([N+](=O)[O-])c2)NC(=O)[C@H](CC(C)C)N(C)C(=O)[C@H](Cc2cn(C(C)(C)[C@H]3CO3)c3ccccc23)NC1=O (mixture of isomers) |  | 0.019 µM | 0.29 µM |  | 1.2 µM | 83 nM | 110 nM |
| C/C=C/C[C@@H]1NC(=O)[C@H](CC(C)C)N2C(=O)[C@H](CC(C)[C@H]2O)N(C)C(=O)[C@H](C)NC(=O)[C@H](Cc2ccc(OC(C)=O)c([N+](=O)[O-])c2)NC(=O)[C@H](CC(C)C)N(C)C(=O)[C@H](Cc2cn(C(C)(C)[C@H]3CO3)c3ccccc23)NC1=O (mixture of isomers) | 11000 |  |  |  |  |  |  |
| NNC(=O)c1ccncc1 [ISONIAZID] |  | 0.46 µM (≈ 0.0631 µg/mL) | > 8 µM |  |  |  |  |
| CO[C@H]1/C=C/O[C@@]2(C)Oc3c(C)c(O)c4c(O)c(c(/C=N/N5CCN(C)CC5)c(O)c4c3C2=O)NC(=O)/C(C)=C\C=C\[C@H](C)[C@H](O)[C@@H](C)[C@@H](O)[C@@H](C)[C@H](OC(C)=O)[C@@H]1C [RIFAMPIN] |  | 0.03 µM (≈ 0.0247 µg/mL) | > 4 µM | > 122000 nM |  |  |  |
